One assay concerns MDA-MB-231. Description: Antiproliferative activity against human MDA-MB-231 cells assessed as inhibition of cell growth. It is filed as functional, cell-based.
A further assay has as its system Staphylococcus aureus. Description: Antibacterial activity against methicillin-resistant Staphylococcus aureus assessed as bacterial growth inhibition. Type of assay: functional.
Assay [1] has as its system ME-180. In words: Antiproliferative activity against human ME-180 ells assessed as inhibition of cell growth. It is filed as functional, cell-based.
The test system of a further assay is A2780. Description: Antiproliferative activity against human A2780 cells assessed as inhibition of cell growth measured after 72 hrs by SRB assay. As to conditions: A2780, 72 h. It is filed as functional, cell-based. A general note: Sulforhodamine B stains cellular protein and so reports cell mass.
For assay [2], the system named is ME-180. Description: Antiproliferative activity against human ME-180 cells assessed as inhibition of cell growth by [3H]-thymidine incorporation based liquid scintillation counter analysis. It is filed as functional. In general terms: Incorporation of labelled thymidine or its analogues reports DNA synthesis.
A short description of assay [3]: Antiproliferative activity against human UM-SCC-38 cells assessed as inhibition of cell growth. It is filed as functional, cell-based.
Assay [4] can be described thus: Antiproliferative activity against human U87MG Human EGFR vIII cells assessed as inhibition of cell growth measured after 24 hrs by MTT assay. Type of assay: functional. A general note: Formazan colour is commonly taken as a measure of viable cells.
Assay [5] in a line: Antiproliferative activity against human A2774 cells assessed as inhibition of cell growth measured after 72 hrs by XTT assay. It is filed as functional.
The subject of a further assay is Y79. In words: Antiproliferative activity against human Y79 cells assessed as inhibition of cell growth measured after 72 hrs by MTT assay. It is filed as functional.
A further assay has as its system MOLM-13. Description: Antiproliferative activity against human MOLM-13 cells assessed as inhibition of cell growth measured after 96 hrs by WST-8 assay. It is filed as functional.
The next assay deals with HT-29. In words: Antiproliferative activity against human HT-29 cells assessed as inhibition of cell growth measured after 48 hrs by MTT assay. It is filed as functional.
For a further assay, the system named is MCF7. Description: Antiproliferative activity in human MCF7 cells assessed as cell growth inhibition measured after 72 hrs by cell counting assay. Type of assay: functional.
A further assay has as its system A-375. Description: Antiproliferative activity against human A-375 cells assessed as inhibition of cell growth measured after 24 hrs by WST-8 assay. Type of assay: functional.
Another assay has as its system NB-4. In words: Antiproliferative activity against human NB-4 cells assessed as inhibition of cell growth measured after 96 hrs by MTT assay. It is filed as functional.
For another assay, the system named is PC-3. Description: Antiproliferative activity against human PC-3 cells assessed as inhibition of cell growth measured after 24 hrs by MTT assay. It is filed as functional.
For another assay, the system named is HL-60. In words: Antiproliferative activity against human HL-60 cells assessed as cell growth inhibition measured after 72 hrs by trypan blue staining based assay. Type of assay: functional.
A further assay concerns SCL-1. Description: Induction of apoptosis in human SCL-1 cells by flow cytometry assay. Conditions: read-out: MEC. Type of assay: functional.
In assay [6] the test system is ME-180. Description: Antiproliferative activity against human ME-180 cells assessed as inhibition of cell growth. It is filed as functional.

The structures appear in SMILES notation. In brackets after ≈: the same amount, converted by molar mass.

9 molecules from ChEMBL document CHEMBL5241070, “Overview of all-trans-retinoic acid (ATRA) and its analogues: Structures, activities, and mechanisms in acute promyelocytic leukaemia” (Eur J Med Chem, 2021) can be followed below.

As for `CC1=C(/C=C/C(C)=C/C=C/C(C)=C/C(=O)Nc2ccc(F)cc2)C(C)(C)CCC1n1ccnc1` (stereo unspecified), the IC50 – broadly, the concentration at which inhibition is half-maximal – in the assay with MDA-MB-231 was found to be 890 nM.

`CCCC(=O)OCc1ccc(OC(=O)/C=C(C)/C=C/C=C(C)/C=C/C2=C(C)CCCC2(C)C)cc1`: in the assay with MDA-MB-231, the GI50 (usually the concentration at which growth is held to half of that of the control) was determined as 10 nM.

`O=C(O)c1ccc(-c2ccc3cc(O)c(C45CC6CC(CC(C6)C4)C5)cc3c2)cc1`: the minimal inhibitory concentration (MIC) (usually the least concentration at which growth counts as inhibited) in the assay on Staphylococcus aureus came out at 1 µg/mL (≈ 2.51 µM).

In the case of `C/C(=C/C=C/C(C)=C/C(=O)O)c1cc(C(C)(C)C)cc(C(C)(C)C)c1`, in the assay with ME-180 [1], the IC50 worked out at 20 nM.

For `CC1=C(/C=C/C(C)=C/C=C/C(C)=C/C(=O)Nc2ccc(O)cc2)C(C)(C)CC/C1=N\OCC(=O)O`, the concentration for half-maximal inhibition (IC50) in the assay on A2780 came to 970 nM.

With `CC(/C=C/C=C(\C)c1cc(C(C)(C)C)cc(C(C)(C)C)c1)=C\C(=O)O`, in the assay with ME-180 [2], the IC50 came out at 1 nM.

With `O=C(O)/C=C/c1ccc(-c2ccc(O)c(C34CC5CC(CC(C5)C3)C4)c2)cc1` [ADAROTENE], in the assay on Staphylococcus aureus, the MIC stood at 1 µg/mL (≈ 2.67 µM).

For the molecule `O=C(O)c1ccc2cc(-c3ccc(O)c(C45CC6CC(CC(C6)C4)C5)c3)ccc2c1` [O-DEMETHYLATED ADAPALENE], in the assay with Staphylococcus aureus, the MIC came out at 1 µg/mL (≈ 2.51 µM).

As to `CC1=C(/C=C/C(C)=C/C=C/C(C)=C/C(=O)O)C(C)(C)CCC1` [TRETINOIN], the IC50 in [3] worked out at 5000 nM. Further, the MCC in [4] is 40 µM; in the assay on Y79, 2000 nM; with A-375, greater than 100 µM. Besides, the CC50 – broadly, the concentration at which the toxic effect on the cells reaches its halfway point – in assay [5] is 82 nM; in the assay with MOLM-13 it was 1240 nM; with HT-29, 4300 nM; with MCF7 it was 20 nM; in the assay on NB-4, 1500 nM; with PC-3 it was 12700 nM. In addition, the CC50 was 23 nM in the assay on HL-60 and 80 nM in the assay on ME-180 [6]. Also, in the assay with SCL-1, the minimal effective concentration was no more than 10 µM.
